The target in this assay is T1, FLT3^D835Y (Homo sapiens, UniProt P36888, D835Y).
T1 construct: purchased Merck Millipore 14-610
T1 sequence (P36888 27-993 D835Y): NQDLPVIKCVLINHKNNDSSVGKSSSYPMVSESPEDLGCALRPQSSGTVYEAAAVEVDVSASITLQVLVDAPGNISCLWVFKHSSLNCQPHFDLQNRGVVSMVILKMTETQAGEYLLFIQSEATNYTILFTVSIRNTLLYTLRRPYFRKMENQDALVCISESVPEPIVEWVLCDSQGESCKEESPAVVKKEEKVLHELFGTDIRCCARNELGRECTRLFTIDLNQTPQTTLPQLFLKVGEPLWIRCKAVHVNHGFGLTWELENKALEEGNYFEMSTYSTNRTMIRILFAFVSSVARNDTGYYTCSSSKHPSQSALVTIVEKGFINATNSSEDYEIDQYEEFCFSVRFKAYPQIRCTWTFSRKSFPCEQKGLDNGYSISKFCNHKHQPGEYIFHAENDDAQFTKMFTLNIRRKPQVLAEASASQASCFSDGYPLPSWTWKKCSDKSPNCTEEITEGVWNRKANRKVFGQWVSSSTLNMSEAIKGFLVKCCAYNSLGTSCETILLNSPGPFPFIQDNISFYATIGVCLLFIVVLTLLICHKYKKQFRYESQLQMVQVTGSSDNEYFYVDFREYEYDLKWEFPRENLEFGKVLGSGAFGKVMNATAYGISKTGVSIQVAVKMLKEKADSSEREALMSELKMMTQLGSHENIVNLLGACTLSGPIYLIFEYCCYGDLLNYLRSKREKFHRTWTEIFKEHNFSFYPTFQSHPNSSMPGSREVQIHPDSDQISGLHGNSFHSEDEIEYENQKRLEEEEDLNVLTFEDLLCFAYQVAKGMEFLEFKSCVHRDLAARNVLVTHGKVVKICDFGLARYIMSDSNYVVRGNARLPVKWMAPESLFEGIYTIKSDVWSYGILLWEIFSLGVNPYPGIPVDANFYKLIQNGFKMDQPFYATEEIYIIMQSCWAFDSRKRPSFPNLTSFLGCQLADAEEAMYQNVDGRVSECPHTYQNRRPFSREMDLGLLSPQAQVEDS
The assay is described as follows: LanthaScreen TR-FRET binding test, FLT3 D835Y. Conditions: FLT3^D835Y 15 nM, kinase tracer 236 3 nM, 25° C., 1 hour; read-out: Inhibition (IC50) of FLT3^D835Y enzyme. The protocol:
FLT3 (#PV3182), JAK2 (#PV4210) and JAK3 (#PV3855) recombinant enzymes were purchased from Life Technologies. FLT3-ITD (#0778-0000-1) and FLT3^D835Y (#14-610) proteins were purchased from ProQinase and Merck Millipore, respectively. All the tests were carried out in 384-well plates. The principle of these binding tests is based on the LanthaScreen® TR-FRET methodology from Life Technologies.
The reaction mixture (15 μL total volume) contains the following compounds: 15 nM FLT3, FLT3-ITD or FLT3^D835Y, 3 nM kinase tracer 236 (Life Technologies, #PV5592) and 6 nM LanthaScreen® anti-GST antibody coupled to a europium chelate (Life Technologies, #PV5594) for FLT3-ITD and FLT3^D835Y or 6 nM LanthaScreen® anti-His antibody coupled to a europium chelate (Life Technologies, #PV5596) for FLT3.
The compounds are evaluated at 8 different concentrations prepared by making dilutions from a starting 10 mM stock solution in dimethylsulfoxide (DMSO) (Sigma, #D8418). The final DMSO concentration in the test is 1%. The reaction is carried out at 25° C. for 1 hour and detected on the EnVision® reader (Perkin Elmer) according to the recommendations of the supplier, Life Technologies.
The results are presented (Table 1) as the concentration values of the compound at which 50% of the kinase activity is inhibited, IC50 (μM), generated using the PRISM software (GraphPad).
In general terms: In TR-FRET formats the signal depends on donor and acceptor labels being close together.

Results on ten compounds are retold here after patent publication US10323043B2, “Derivatives of macrocyclic N-aryl-tricyclopyrimidine-2-amine polyethers as inhibitors of FTL3 and JAK” (PIERRE FABRE MEDICAMENT, priority 2014, dated 2019).

Take `CN1CCN(c2ccc3cc2OCCOCCOc2ccc4c(c2)-c2nc(ncc2CC4)N3)CC1` [Compound 3]: the IC50 (as a rule, the point on the concentration scale where inhibition reaches its midpoint) worked out at 3 nM.

Turning to `c1cc(N2CCNCC2)c2cc1Nc1ncc3c(n1)-c1cc(ccc1CC3)OCCOCCO2` [Compound 5], the IC50 stood at 0.66 nM.

Regarding `c1cc(N2CCC(N3CCOCC3)C2)c2cc1Nc1ncc3c(n1)-c1cc(ccc1CC3)OCCOCCO2` (stereo not shown) [Compound 7], the IC50 was 7.2 nM.

As to `c1cc(N2CCC(N3CCCCC3)CC2)c2cc1Nc1ncc3c(n1)-c1cc(ccc1CC3)OCCOCCO2` [Compound 10], the IC50 was 1.1 nM.

Consider `c1cc(OCCN2CCCC2)c2cc1Nc1ncc3c(n1)-c1cc(ccc1CC3)OCCOCCO2` [Compound 14], for which the IC50 is 3.2 nM.

Consider `OC1CCN(c2ccc3cc2OCCOCCOc2ccc4c(c2)-c2nc(ncc2CC4)N3)CC1` [Compound 19], for which the IC50 came to 5.3 nM.

Take `CN1CC=C(c2ccc3cc2OCCOCCOc2ccc4c(c2)-c2nc(ncc2CC4)N3)CC1` [Compound 23]: the IC50 stood at 4.5 nM.

For `c1cc(N2CC3CNCC3C2)c2cc1Nc1ncc3c(n1)-c1cc(ccc1CC3)OCCOCCO2` (stereo not shown) [Compound 29], the IC50 stood at 1.9 nM.

Regarding `CN(C)C1CCN(c2ccc3cc2OCCOCCOc2ccc4c(c2)-c2nc(ncc2CC4)N3)C1` (stereo not shown) [Compound 30], the IC50 is 3.2 nM.

In the case of `CN1CCN(c2ccc3cc2OCCOCCOc2ccc4c(c2)-c2nc(ncc2CC4)N3)CC1(C)C` [Compound 40], the 50% inhibitory concentration (IC50) stood at 1 nM.
